{"source": "patent US20160115540A1", "about": "“PRODRUGS AND DRUGS” (Biogen MA Inc., priority 2013, published 2016)", "system": "liver", "experiment": "Transcriptional profiling on Affymetrix GeneChips, single dose, naïve mice: liver", "assay_type": "in vivo, C57BL/6 mice", "details": "for Number of differentially expressed genes identified: Liver: Naïve, Single Dose", "protocol": "Treated mice were sacrificed at 2, 7, or 12 hours. Tissues (liver, spleen, kidney, jejunum, cortex, hippocampus, striatum and whole blood) were collected and analyzed by transcriptional profiling on mouse Affymetrix GeneChips.\nTissues (liver, spleen, kidney, jejunum, cortex, hippocampus, striatum and whole blood) were collected and analyzed by transcriptional profiling on mouse Affymetrix GeneChips.\nAnimals were exposed to CO2 and whole blood collected via cardiac puncture. Two 100 μl aliquots of whole blood were collected in 1.5 mL microcentrifuge tubes and snap frozen in liquid nitrogen. Peripheral (liver, spleen, kidney and jejunum) and CNS brain (cerebellum, hippocampus, striatum and cortex) tissues were harvested and snap frozen in liquid nitrogen, with special care taken to collect tissues of similar size and from the same location. All samples were stored at −80° C. until RNA extraction was conducted.\nFor RNA preparation, frozen tissues were placed in 2 mL RNAse-free 96-well blocks with 1.5 mL QIAzol Lysis Reagent (QIAgen) and a 3.2 mm stainless steel bead (BioSpec Products, Bartlesville, Okla.). Tissues were disrupted for four cycles of 45 seconds in a Mini-Beadbeater (Biospec Products). RNA was extracted in chloroform and the aqueous phase was mixed with an equal volume of 70% ethanol. Extracted RNA was applied to RNeasy 96 plates and purified by the spin method according to the manufacturer's protocol (RNeasy 96 Universal Tissue Protocol, QIAgen, Hilden Germany).\nAutomated sample amplifications and biotin labelings were carried out using the NuGEN Ovation RNA Amplification system V2 (Cat #3100), Ovation WB reagent (Cat #1300) and Encore Biotin module (Cat #4200) (NuGEN Technologies, Inc, San Carlos, Calif.) according to manufacturer's recommendations using an Arrayplex automated liquid handler (Beckman Coulter, Indianapolis, Ind.). Two micrograms of biotin labeled sscDNA probe were hybridized to Affymetrix GeneChip Affymetrix HT_MG-430_PM plate arrays with modified conditions as described in Allaire et al. Washing and staining of the hybridized arrays were completed as described in the GeneChip Expression analysis technical manual for HT plate arrays using the Genechip® Array Station (Affymetrix, Santa Clara, Calif.) with modifications as described in Allaire et al. The processed GeneChip® plate arrays were scanned using GeneTitan scanner (Affymetrix, Santa Clara, Calif.).\nAffymetrix scans were subject to quality control (QC) measures. These tests included a visual inspection of the distribution of raw signal intensities and an assessment of RNA degradation, relative log expression (RLE), and normalized unsealed standard error (NUSE). All sample scans that passed these QC metrics were included in the analysis.\nAll CEL files were subjected to GC-content-based Robust Multi-array Average (GCRMA) normalization (version 2.20.0) (Irizarry R A, et al. Nucleic Acids Res 2003; 31:e15; Li C, et al. Genome Biol 2001; 2:[…]0032). Expression levels were log (base 2) transformed.\nAll calculations and analyses were carried out using R (version 2.11.1) and Bioconductor computational tools (Gentleman R. Springer Science+Business Media 2005).", "key": {"[1]": {"details": "liver, 100 mg/kg, 2 hr, vs matched vehicle controls"}, "[2]": {"details": "liver, 100 mg/kg, 7 hr, vs matched vehicle controls"}}, "note": "Counter-ions that a name gives are not always drawn."}
{"smiles": "COC(=O)/C=C/C(=O)OC", "note": "[DMF, dimethyl fumarate]", "values": [{"measurement": "FC Dnajc12 (DnaJ (Hsp40) homolog, subfamily C, member 12)", "setting": "100DMF-vs-100MMF, 12 h, probe 1417441_PM_at, naïve single dose, tissue section before SPLEEN", "result": "−2.49"}, {"measurement": "FC Cyb561 (cytochrome b-561)", "setting": "100DMF-vs-100MMF, 12 h, probe 1417507_PM_at, naïve single dose, tissue section before SPLEEN", "result": "−2.02"}, {"measurement": "FC Crybb3 (crystallin, beta B3)", "setting": "100DMF-vs-100MMF, 12 h, probe 1419005_PM_at, naïve single dose, tissue section before SPLEEN", "result": "−1.69"}, {"measurement": "FC 9130221J18Rik (RIKEN cDNA 9130221J18 gene)", "setting": "100DMF-vs-100MMF, 12 h, probe 1446368_PM_at, naïve single dose, tissue section before SPLEEN", "result": "−1.93"}, {"measurement": "FC Tnfrsf19 (1448147_PM_at)", "setting": "LIVER, 100DMF-vs-100MMF, 7 h", "result": 1.73}, {"measurement": "FC Isyna1 (1415977_PM_at)", "setting": "LIVER, 100DMF-vs-100MMF, 12 h", "result": "−1.76"}, {"measurement": "FC 1447411_PM_at (no gene symbol)", "setting": "LIVER, 100DMF-vs-Veh, 2 h", "result": 2.57}, {"measurement": "FC 5430435G22Rik (1435830_PM_a_at)", "setting": "LIVER, 100DMF-vs-Veh, 2 h", "result": 1.79}, {"measurement": "FC 9130221J17Rik (1443159_PM_at)", "setting": "LIVER, 100DMF-vs-Veh, 2 h", "result": 1.54}, {"measurement": "FC Abcc1 (1452233_PM_at)", "setting": "LIVER, 100DMF-vs-Veh, 2 h", "result": 1.75}, {"measurement": "FC Akr1b8 (1448894_PM_at)", "setting": "LIVER, 100DMF-vs-Veh, 2 h", "result": 2.18}, {"measurement": "FC Clec4n (1419627_PM_s_at)", "setting": "LIVER, 100DMF-vs-Veh, 2 h", "result": 2.34}, {"measurement": "FC Clec4d (1420804_PM_s_at)", "setting": "LIVER, 100DMF-vs-Veh, 2 h", "result": 2.30}, {"measurement": "FC Figf (1438953_PM_at)", "setting": "LIVER, 100DMF-vs-Veh, 2 h", "result": 2.23}, {"measurement": "FC Figf (1438954_PM_x_at)", "setting": "LIVER, 100DMF-vs-Veh, 2 h", "result": 1.90}, {"measurement": "FC Figf (1449528_PM_at)", "setting": "LIVER, 100DMF-vs-Veh, 2 h", "result": 1.66}, {"measurement": "FC Hmox1 1448239_PM_at", "setting": "LIVER, 100DMF-vs-Veh, 2 h", "result": 2.37}, {"measurement": "FC Pgd (1436771_PM_x_at)", "setting": "LIVER, 100DMF-vs-Veh, 2 h", "result": 1.59}, {"measurement": "FC Pgd (1437380_PM_x_at)", "setting": "LIVER, 100DMF-vs-Veh, 2 h", "result": 1.61}, {"measurement": "FC Ppfibp2 (1417801_PM_a_at)", "setting": "LIVER, 100DMF-vs-Veh, 2 h", "result": 2.38}, {"measurement": "FC Srxn1 (1419942_PM_at)", "setting": "LIVER, 100DMF-vs-Veh, 2 h", "result": 1.69}, {"measurement": "FC Srxn1 (1426875_PM_s_at)", "setting": "LIVER, 100DMF-vs-Veh, 2 h", "result": 1.64}, {"measurement": "FC Srxn1 (1451680_PM_at)", "setting": "LIVER, 100DMF-vs-Veh, 2 h", "result": 1.59}, {"measurement": "FC Adora1 (1435495_PM_at)", "setting": "LIVER, 100DMF-vs-Veh, 7 h", "result": 1.50}, {"measurement": "FC Akr1b8 (1448894_PM_at)", "setting": "LIVER, 100DMF-vs-Veh, 7 h", "result": 1.58}, {"measurement": "FC Bmp6 (1450759_PM_at)", "setting": "LIVER, 100DMF-vs-Veh, 7 h", "result": 1.57}, {"measurement": "FC Clec4n (1419627_PM_s_at)", "setting": "LIVER, 100DMF-vs-Veh, 7 h", "result": 2.01}, {"measurement": "FC Nqo1 (1423627_PM_at)", "setting": "LIVER, 100DMF-vs-Veh, 7 h", "result": 1.81}, {"measurement": "FC Gstm4 (1424835_PM_at)", "setting": "LIVER, 100DMF-vs-Veh, 12 h", "result": 1.54}, {"measurement": "Number of genes, DMF Only / MMF Only", "setting": "Liver", "result": 2}, {"measurement": "Number of differentially expressed genes identified: Liver", "setting": "100 mpk DMF-vs-100 mpk MMF, 2 h after last dosing", "result": 0}, {"measurement": "Number of differentially expressed genes identified: Liver", "setting": "100 mpk DMF-vs-100 mpk MMF, 7 h after last dosing", "result": 1}, {"measurement": "Number of differentially expressed genes identified: Liver", "setting": "100 mpk DMF-vs-100 mpk MMF, 12 h after last dosing", "result": 5}, {"measurement": "Number of differentially expressed genes identified: Liver", "setting": "100 mpk, vs Vehicle, 2 h after last dosing", "result": 18}, {"measurement": "Number of differentially expressed genes identified: Liver", "setting": "100 mpk, vs Vehicle, 7 h after last dosing", "result": 5}, {"measurement": "Number of differentially expressed genes identified: Liver", "setting": "100 mpk, vs Vehicle, 12 h after last dosing", "result": 1}, {"measurement": "Murine Liver DEGs: Abcc1 (1452233_PM_at)", "setting": "[1]", "result": 1.75}, {"measurement": "Murine Liver DEGs: Akr1b8 (1448894_PM_at)", "setting": "[1]", "result": 2.18}, {"measurement": "Murine Liver DEGs: Clec4n (1419627_PM_s_at)", "setting": "[1]", "result": 2.34}, {"measurement": "Murine Liver DEGs: Clec4d (1420804_PM_s_at)", "setting": "[1]", "result": 2.30}, {"measurement": "Murine Liver DEGs: Figf (1438953_PM_at)", "setting": "[1]", "result": 2.23}, {"measurement": "Murine Liver DEGs: Hmox1 (1448239_PM_at)", "setting": "[1]", "result": 2.37}, {"measurement": "Murine Liver DEGs: Pgd (1436771_PM_x_at)", "setting": "[1]", "result": 1.59}, {"measurement": "Murine Liver DEGs: Ppfibp2 (1417801_PM_a_at)", "setting": "[1]", "result": 2.38}, {"measurement": "Murine Liver DEGs: Srxn1 (1419942_PM_at)", "setting": "[1]", "result": 1.69}, {"measurement": "Murine Liver DEGs: Adora1 (1435495_PM_at)", "setting": "[2]", "result": 1.50}, {"measurement": "Murine Liver DEGs: Akr1b8 (1448894_PM_at)", "setting": "[2]", "result": 1.58}, {"measurement": "Murine Liver DEGs: Bmp6 (1450759_PM_at)", "setting": "[2]", "result": 1.57}, {"measurement": "Murine Liver DEGs: Clec4n (1419627_PM_s_at)", "setting": "[2]", "result": 2.01}, {"measurement": "Murine Liver DEGs: Nqo1 (1423627_PM_at)", "setting": "[2]", "result": 1.81}, {"measurement": "Murine Liver DEGs: Gstm4 (1424835_PM_at)", "setting": "liver, 100 mg/kg, 12 hr, vs matched vehicle controls", "result": 1.12}, {"measurement": "Abcc1 (probe set 1452233_PM_at) differential expression", "setting": "liver, 2 hr", "result": 1.75}, {"measurement": "Akr1b8 (probe set 1448894_PM_at) differential expression", "setting": "liver, 2 hr", "result": 2.18}, {"measurement": "Clec4n (probe set 1419627_PM_s_at) differential expression", "setting": "liver, 2 hr", "result": 2.34}, {"measurement": "Clec4d (probe set 1420804_PM_s_at) differential expression", "setting": "liver, 2 hr", "result": 2.30}, {"measurement": "Figf (probe set 1438953_PM_at) differential expression", "setting": "liver, 2 hr", "result": 2.23}, {"measurement": "Hmox1 (probe set 1448239_PM_at) differential expression", "setting": "liver, 2 hr", "result": 2.37}, {"measurement": "Pgd (probe set 1436771_PM_x_at) differential expression", "setting": "liver, 2 hr", "result": 1.59}, {"measurement": "Ppfibp2 (probe set 1417801_PM_a_at) differential expression", "setting": "liver, 2 hr", "result": 2.38}, {"measurement": "Srxn1 (probe set 1419942_PM_at) differential expression", "setting": "liver, 2 hr", "result": 1.69}, {"measurement": "Adora1 (probe set 1435495_PM_at) differential expression", "setting": "liver, 7 hr", "result": 1.50}, {"measurement": "Akr1b8 (probe set 1448894_PM_at) differential expression", "setting": "liver, 7 hr", "result": 1.58}, {"measurement": "Bmp6 (probe set 1450759_PM_at) differential expression", "setting": "liver, 7 hr", "result": 1.57}, {"measurement": "Clec4n (probe set 1419627_PM_s_at) differential expression", "setting": "liver, 7 hr", "result": 2.01}, {"measurement": "Nqo1 (probe set 1423627_PM_at) differential expression", "setting": "liver, 7 hr", "result": 1.81}, {"measurement": "Gstm4 (probe set 1424835_PM_at) differential expression", "setting": "liver, 12 hr", "result": 1.12}]}
